Assay results: patent US9920061B2, “Imidazo[1,5-A]pyrimidinyl carboxamide compounds and their use in the treatment of medical disorders” (Lysosomal Therapeutics Inc., priority 2016, dated 2018)
Values after ≈ are worked out from the molar mass of the structure shown.

Legend:
[1] = Compound solubility in water; format: physicochemical; conditions: in water
[2] = target: T1, glucocerebrosidase (Gcase) (Homo sapiens, UniProt P04062); assay: Glucocerebrosidase (Gcase) activation assay, 4-methylumbelliferyl-beta-D-glucopyranoside substrate, with saposin C; format: biochemical; conditions: for activation at 0.1 µM: test compound at 0.1 μM, read-out: Percent Gcase Activation, 0.1 μM Test Compound; for activation at 1 µM: test compound at 1.0 μM, read-out: Percent Gcase Activation, 1 μM Test Compound
T1 sequence (P04062 40-536): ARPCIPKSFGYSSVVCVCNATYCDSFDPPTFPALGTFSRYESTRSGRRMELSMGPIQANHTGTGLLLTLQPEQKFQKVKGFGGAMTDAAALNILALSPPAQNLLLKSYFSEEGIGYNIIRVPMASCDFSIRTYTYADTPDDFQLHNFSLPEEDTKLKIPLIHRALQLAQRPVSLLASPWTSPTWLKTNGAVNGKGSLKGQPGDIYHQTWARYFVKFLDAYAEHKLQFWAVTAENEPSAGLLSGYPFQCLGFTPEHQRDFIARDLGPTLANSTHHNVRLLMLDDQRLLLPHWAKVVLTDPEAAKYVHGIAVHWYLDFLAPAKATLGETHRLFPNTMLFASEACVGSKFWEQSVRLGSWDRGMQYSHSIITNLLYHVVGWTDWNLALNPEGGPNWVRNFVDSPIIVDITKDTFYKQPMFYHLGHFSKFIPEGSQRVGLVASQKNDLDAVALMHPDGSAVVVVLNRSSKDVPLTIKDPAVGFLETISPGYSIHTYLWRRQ
How it was run: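 Micellar buffer (176 mM K2HPO4/50 mM citric acid, pH 4.7; 0.32 mM triton, 0.37 mol % PS) holding 10 nM GCase and 100 nM saposin C, pre-incubated with compound 30 min at room temperature. Substrate final 2 mM before mixing; 15 min reaction, glycine pH 12.5 stop, fluorescence 365/440 nm. Screened at 1.0 and 0.1 μM; 8-point, 3-fold dose response.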

Question: Which results are given for `Cc1cc(-c2cnsc2)nc2c(C(=O)N[C@@H](C3CC3)C(F)(F)F)ncn12` [IV-53]?
Answer: solubility [1]: 13.2 µg/mL (≈ 34.6 µM); activation at 0.1 µM [2]: 10 to 20%; activation at 1 µM [2]: > 60%

Question: Which solubility [1] does the source give for `Cc1cc(-c2cnsc2)nc2c(C(=O)NC(C)(C)C)ncn12` [IV-55] here?
Answer: 8.2 µg/mL (≈ 26 µM)

Question: And the activation at 0.1 µM [2]?
Answer: < 10%

Question: What about the activation at 1 µM [2] of the same compound?
Answer: > 60%

Question: With `COc1cc(F)cc(-c2cc(C)n3cnc(C(=O)N[C@@H](C)C4CC4)c3n2)c1` [IV-56] as the compound, how does the solubility [1] read?
Answer: 3.7 µg/mL (≈ 10 µM)

Question: What about the activation at 0.1 µM [2] of the same compound?
Answer: > 20%

Question: And the activation at 1 µM [2]?
Answer: > 60%

Question: With `COc1cc(F)cc(-c2cc(C)n3cnc(C(=O)NC(C)C(F)(F)F)c3n2)c1` (stereo not drawn) [IV-57] as the compound, how does the solubility [1] read?
Answer: 1.2 µg/mL (≈ 3.03 µM)

Question: What about the activation at 0.1 µM [2] of the same compound?
Answer: > 20%

Question: And the activation at 1 µM [2]?
Answer: > 60%

Question: For `COc1cc(F)cc(-c2cc(C)n3cnc(C(=O)N[C@H](C)C(F)(F)F)c3n2)c1` [IV-58], which solubility [1] is on record?
Answer: 2.3 µg/mL (≈ 5.8 µM)

Question: And the activation at 0.1 µM [2]?
Answer: > 20%

Question: What about the activation at 1 µM [2] of the same compound?
Answer: > 60%

Question: Which solubility [1] does the source give for `COc1cc(F)cc(-c2cc(C)n3cnc(C(=O)N[C@@H](C)C(F)(F)F)c3n2)c1` [IV-59] here?
Answer: 2.2 µg/mL (≈ 5.55 µM)

Question: And the activation at 0.1 µM [2]?
Answer: > 20%

Question: And the activation at 1 µM [2]?
Answer: > 60%

Question: Which solubility [1] does the source give for `Cc1cc(-c2cccc(-c3ncco3)c2)nc2c(C(=O)NC(C3CC3)C(F)(F)F)ncn12` (stereo not drawn) [IV-60] here?
Answer: 2.3 µg/mL (≈ 5.21 µM)

Question: What about the activation at 0.1 µM [2] of the same compound?
Answer: > 20%

Question: And the activation at 1 µM [2]?
Answer: > 60%

Question: What does the source list for `COc1c(F)cccc1-c1cc(C)n2cnc(C(=O)N[C@@H](C)C3CC3)c2n1` [IV-62]?
Answer: solubility [1]: 16 µg/mL (≈ 43.4 µM); activation at 0.1 µM [2]: < 10%; activation at 1 µM [2]: > 60%

Question: Which solubility [1] does the source give for `COc1c(F)cccc1-c1cc(C)n2cnc(C(=O)NC(C3CC3)C(F)(F)F)c2n1` (stereo not drawn) [IV-63] here?
Answer: 3.1 µg/mL (≈ 7.34 µM)

Question: And the activation at 0.1 µM [2]?
Answer: 10 to 20%

Question: And the activation at 1 µM [2]?
Answer: > 60%

Question: Which solubility [1] does the source give for `COc1c(F)cccc1-c1cc(C)n2cnc(C(=O)NC(C)C(F)(F)F)c2n1` (stereo not drawn) [IV-64] here?
Answer: 21 µg/mL (≈ 53 µM)

Question: And the activation at 0.1 µM [2]?
Answer: < 10%

Question: What about the activation at 1 µM [2] of the same compound?
Answer: 30 to 60%

Question: Which solubility [1] does the source give for `COc1c(C#N)cccc1-c1cc(C)n2cnc(C(=O)N[C@@H](C)C3CC3)c2n1` [IV-65] here?
Answer: 15.6 µg/mL (≈ 41.6 µM)

Question: What about the activation at 0.1 µM [2] of the same compound?
Answer: < 10%

Question: What about the activation at 1 µM [2] of the same compound?
Answer: < 30%

Question: For `COc1c(C#N)cccc1-c1cc(C)n2cnc(C(=O)NC(C)C(F)(F)F)c2n1` (stereo not drawn) [IV-66], which solubility [1] is on record?
Answer: 23.9 µg/mL (≈ 59.3 µM)

Question: And the activation at 0.1 µM [2]?
Answer: < 10%

Question: What about the activation at 1 µM [2] of the same compound?
Answer: < 30%

Question: For `COc1c(C#N)cccc1-c1cc(C)n2cnc(C(=O)NC(C3CC3)C(F)(F)F)c2n1` (stereo not drawn) [IV-67], which solubility [1] is on record?
Answer: 13.5 µg/mL (≈ 31.4 µM)

Question: What about the activation at 0.1 µM [2] of the same compound?
Answer: < 10%

Question: And the activation at 1 µM [2]?
Answer: 30 to 60%

Question: With `COc1cccc(-c2cc(C)n3cnc(C(=O)N[C@@H](C)C4CC4)c3n2)c1C#N` [IV-68] as the compound, how does the solubility [1] read?
Answer: 0.7 µg/mL (≈ 1.86 µM)

Question: And the activation at 0.1 µM [2]?
Answer: > 20%

Question: And the activation at 1 µM [2]?
Answer: > 60%

Question: Which solubility [1] does the source give for `COc1cccc(-c2cc(C)n3cnc(C(=O)NC(C4CC4)C(F)(F)F)c3n2)c1C#N` (stereo not drawn) [IV-69] here?
Answer: 1.3 µg/mL (≈ 3.03 µM)

Question: And the activation at 0.1 µM [2]?
Answer: > 20%

Question: What about the activation at 1 µM [2] of the same compound?
Answer: > 60%

Question: What does the source list for `COc1ccc(-c2cc(C)n3cnc(C(=O)NC(C4CC4)C(F)(F)F)c3n2)cc1F` (stereo not drawn) [IV-70]?
Answer: solubility [1]: 1.5 µg/mL (≈ 3.55 µM); activation at 0.1 µM [2]: > 20%; activation at 1 µM [2]: > 60%

Question: With `COc1ccc(F)cc1-c1cc(C)n2cnc(C(=O)NC(C3CC3)C(F)(F)F)c2n1` (stereo not drawn) [IV-71] as the compound, how does the solubility [1] read?
Answer: 1.5 µg/mL (≈ 3.55 µM)

Question: What about the activation at 0.1 µM [2] of the same compound?
Answer: > 20%

Question: And the activation at 1 µM [2]?
Answer: > 60%

Question: What does the source list for `Cc1cc(-c2ccc3ocnc3c2)nc2c(C(=O)NC(C3CC3)C(F)(F)F)ncn12` (stereo not drawn) [IV-72]?
Answer: solubility [1]: 1.1 µg/mL (≈ 2.65 µM); activation at 0.1 µM [2]: > 20%; activation at 1 µM [2]: > 60%

Question: For `Cc1cc(-c2ccc3ocnc3c2)nc2c(C(=O)NC(C)C(F)(F)F)ncn12` (stereo not drawn) [IV-73], which solubility [1] is on record?
Answer: 2.1 µg/mL (≈ 5.39 µM)

Question: What about the activation at 0.1 µM [2] of the same compound?
Answer: > 20%

Question: And the activation at 1 µM [2]?
Answer: > 60%

Question: Which solubility [1] does the source give for `Cc1cc(-n2ccc(Cl)n2)nc2c(C(=O)NC(C)C(F)(F)F)ncn12` (stereo not drawn) [IV-74] here?
Answer: 4.2 µg/mL (≈ 11.3 µM)

Question: And the activation at 0.1 µM [2]?
Answer: < 10%

Question: What about the activation at 1 µM [2] of the same compound?
Answer: 30 to 60%

Question: Which results are given for `Cc1cc(-c2ccc3c(c2)OCO3)nc2c(C(=O)NC(C3CC3)C(F)(F)F)ncn12` (stereo not drawn) [IV-75]?
Answer: solubility [1]: 0.5 µg/mL (≈ 1.2 µM); activation at 0.1 µM [2]: > 20%; activation at 1 µM [2]: > 60%

Question: What does the source list for `Cc1cc(-c2ccc3c(c2)OCO3)nc2c(C(=O)NC(C)C(F)(F)F)ncn12` (stereo not drawn) [IV-76]?
Answer: solubility [1]: 1.2 µg/mL (≈ 3.06 µM); activation at 0.1 µM [2]: > 20%; activation at 1 µM [2]: > 60%
